Results: patent publication US20230365492A1, “LITHIUM ORGANIC ACID-AMINO ACID SALT, AND CRYSTAL FORM, COMPOSITION AND APPLICATION THEREOF” (ANYU BIOTECHNOLOGY (HANGZHOU) CO., LTD., priority 2020, published 2023)
“Also recorded” adds a separate entry of the source.

Key:
[1] = target: GSK-3β (Cricetulus griseus, UniProt A0A061I155); settings: CHO cells, treated 2 hours, 0-50 mM (vs lithium isobutyrate) or 0-90 mM (vs lithium carbonate), Western blot, GAPDH reference
Description: The cells were continuously subjected to lysis by an RIPA buffer containing a protease inhibitor, followed by detection by Western blot with phosphorylated GSK-3β (Ser9) or a total GSK-3β antibody as an antibody.
GAPDH (glyceraldehyde-3-phosphate dehydrogenase) was used as an internal reference protein.

[2] = test system: Notch protein; settings: SH-SY5Y cells, 3 hours, concentration of less than 50 mM, Western blot
Description: GAPDH was used as an internal reference protein. A Notch protein is an important signaling molecule at the downstream of GSK-3, and plays an important positive role in regulating the proliferation and survival of cells.

[3] = test system: Kunming mice
Method: According to the Horn's method, 40 Kunming mice (with the weight of 19.8-22 g, including half male mice and half female mice) were divided into four groups at an equal ratio of 2.15, including a 464 mg/kg dose group, a 1,000 mg/kg dose group, a 2,150 mg/kg dose group and a 4,640 mg/kg dose group (each group was orally administrated at one time and includes 10 mice with half male mice and half female mice). […] 24 hours later, poisoning symptoms, occurrence time and death time of the experimental animals were observed every day for an observation period of 14 days. Dead animals and other animals sacrificed within 14 days were subjected to gross anatomy. When gross pathological changes were observed by naked eyes, pathological examination was performed.

[4] = test system: tau protein; settings: SH-SY5Y cells, 3 hours, Western blot
Description: (§1) GAPDH was used as an internal reference protein.

[5] = test system: HEK293 cells; settings: 5 mM, 4 hours, confocal microscope
[6] = target: GSK-3β (Mus musculus, UniProt Q9WV60); settings: APP/PS1 mice, gavage, 0.02 and 0.08 mmol/mouse, 4 hours after administration
GSK-3β (Mus musculus, UniProt Q9WV60), sequence (Q9WV60 whole entry): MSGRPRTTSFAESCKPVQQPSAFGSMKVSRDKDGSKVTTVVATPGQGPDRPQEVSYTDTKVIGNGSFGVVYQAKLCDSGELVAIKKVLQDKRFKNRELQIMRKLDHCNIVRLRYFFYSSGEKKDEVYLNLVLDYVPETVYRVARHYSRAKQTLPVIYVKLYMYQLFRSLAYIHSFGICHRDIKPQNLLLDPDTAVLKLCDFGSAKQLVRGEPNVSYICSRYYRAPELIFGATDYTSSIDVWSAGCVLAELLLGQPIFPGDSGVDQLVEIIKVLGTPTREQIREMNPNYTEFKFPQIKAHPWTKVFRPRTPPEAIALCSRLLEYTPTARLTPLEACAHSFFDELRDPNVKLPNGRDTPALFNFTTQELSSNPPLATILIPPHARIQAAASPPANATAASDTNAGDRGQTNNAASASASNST
Method: Brain tissues were extracted, and a homogenate of the brain tissues was prepared.

[7] = test system: β-catenine; settings: CHO cells, 0-50 mM, 2 hours, Western blot
Description: as §1

GSK-3β (Cricetulus griseus, UniProt A0A061I155), sequence (A0A061I155 1-428): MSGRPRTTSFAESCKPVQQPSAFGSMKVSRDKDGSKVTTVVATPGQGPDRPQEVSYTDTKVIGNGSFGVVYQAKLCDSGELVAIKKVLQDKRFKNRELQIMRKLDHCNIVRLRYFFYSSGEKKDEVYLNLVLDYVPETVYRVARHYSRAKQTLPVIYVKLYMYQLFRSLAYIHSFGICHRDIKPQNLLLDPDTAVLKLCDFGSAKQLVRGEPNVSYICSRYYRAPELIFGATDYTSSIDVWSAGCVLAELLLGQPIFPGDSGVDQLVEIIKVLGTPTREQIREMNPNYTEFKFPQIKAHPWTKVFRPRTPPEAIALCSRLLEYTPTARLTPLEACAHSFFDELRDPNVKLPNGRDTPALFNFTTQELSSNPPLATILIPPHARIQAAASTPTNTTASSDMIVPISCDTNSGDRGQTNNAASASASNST

Row | Compound | inhibition of the activity of GSK-3β (phosphorylated GSK-3β (Ser9) expression) [1] | Notch protein expression [2] | symptoms of experimental animals ([3]; oral, 464 mg/kg and 1,000 mg/kg dose groups) | symptoms and death of experimental animals ([3]; oral, 2,150 mg/kg and 4,640 mg/kg dose groups, within 24 hours) | concentration at which an effect on total tau protein expression is seen [4] [mM] | change in morphology of HEK293 cells [5] | effect on phosphorylated GSK-3β (Ser9) expression in brain tissues [6] | cell survival related protein (β-catenine) expression [7] | total tau protein expression ([4]; 0-50 mM)
1 | O=C([O-])[O-].[Li+].[Li+] [lithium carbonate, reference compound] | obviously lower than that of the lithium isobutyrate-L-proline salt | obvious inhibition effect on the Notch protein expression | no abnormalities | abnormal posture symptoms within 24 hours and are all dead | 6.25 | obvious change in morphology |  |  | 
2 | lithium isobutyrate-L-proline salt | significantly decreased phosphorylated GSK-3β (Ser9) expression in a dose-dependent manner; also recorded: dose-dependent inhibition effect on the GSK-3β, and the inhibition effect is stable | no influence on the Notch expression |  |  | 3.125 |  | significantly better than that of the lithium carbonate | significantly increases the cell survival related protein (β-catenine) expression in a dose-dependent manner | significantly decrease the total tau protein expression in a concentration-dependent manner
